In patent publication US8952157B2, “Apoptosis-inducing agents for the treatment of cancer and immune and autoimmune diseases” (AbbVie Inc., priority 2008, dated 2015):

target: GST-Bcl-2 (Homo sapiens (Human), UniProt P10415); assay: Time Resolved-Fluorescence Resonance Energy Transfer (TR-FRET) Bcl-2 binding assay; details: not given
In short: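 Ki values derived from TR-FRET displacement of F-Bak peptide from GST-Bcl-2, detected with Tb-labelled anti-GST antibody (ex 340, em 520/495 nm). Compound dilution series started at 50 μM (2× starting concentration); room-temperature incubation 3 hours.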

GST-Bcl-2, sequence (P10415 whole entry): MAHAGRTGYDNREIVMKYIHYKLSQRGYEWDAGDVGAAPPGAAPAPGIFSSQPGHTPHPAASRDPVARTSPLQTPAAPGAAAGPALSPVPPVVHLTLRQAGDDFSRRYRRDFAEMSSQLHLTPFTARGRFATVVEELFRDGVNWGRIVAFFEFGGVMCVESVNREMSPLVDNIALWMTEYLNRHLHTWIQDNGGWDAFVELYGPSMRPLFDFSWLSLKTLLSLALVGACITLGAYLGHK

Row | Compound | Ki [nM]
1 | CC1(C)CCC(CN2CCN(c3ccc(C(=O)NS(=O)(=O)c4ccc(N[C@H]5CC[C@H](N6CCOCC6)CC5)c([N+](=O)[O-])c4)c(Oc4cccc(Cl)c4)c3)CC2)=C(c2ccc(Cl)cc2)C1 [Example 205, Trans-2-(3-chlorophenoxy)-4-(4-{[2-(4-chlorophenyl)-4,4-dimethylcyclohex-1-en-1-yl]methyl}piperazin-1-yl)-N-({4-[(4-morpholin-4-ylcyclohexyl)amino]-3-nitrophenyl}sulfonyl)benzamide] | 0.153

same assay, conditions: GST-Bcl-2 1 nM, F-Bak peptide probe 100 nM, Tb-anti-GST antibody 1 nM; Ki by Wang's equation

Row | Compound | Ki [nM]
2 | CN1CCC(Nc2ccc(S(=O)(=O)NC(=O)c3ccc(N4CCN(CC5=C(c6ccc(Cl)cc6)CC(C)(C)OC5)CC4)cc3Oc3cccc(Cl)c3)cc2[N+](=O)[O-])CC1 [Example 144, 2-(3-chlorophenoxy)-4-(4-{[4-(4-chlorophenyl)-6,6-dimethyl-5,6-dihydro-2H-pyran-3-yl]methyl}piperazin-1-yl)-N-({4-[(1-methylpiperidin-4-yl)amino]-3-nitrophenyl}sulfonyl)benzamide] | 0.028
3 | CC1(C)CCC(CN2CCN(c3ccc(C(=O)NS(=O)(=O)c4ccc(NC5CCN(CC6CC6)CC5)c([N+](=O)[O-])c4)c(Oc4cccc(Cl)c4)c3)CC2)=C(c2ccc(Cl)cc2)C1 [Example 187, 2-(3-chlorophenoxy)-4-(4-{[2-(4-chlorophenyl)-4,4-dimethylcyclohex-1-en-1-yl]methyl}piperazin-1-yl)-N-[(4-{[1-(cyclopropylmethyl)piperidin-4-yl]amino}-3-nitrophenyl)sulfonyl]benzamide] | 0.054
4 | CNc1ncc(Oc2cc(N3CCN(CC4=C(c5ccc(Cl)cc5)CC(C)(C)CC4)CC3)ccc2C(=O)NS(=O)(=O)c2ccc(NCC3CCOCC3)c([N+](=O)[O-])c2)cc1Cl [Example 377, 2-{[5-chloro-6-(methylamino)pyridin-3-yl]oxy}-4-(4-{[2-(4-chlorophenyl)-4,4-dimethylcyclohex-1-en-1-yl]methyl}piperazin-1-yl)-N-({3-nitro-4-[(tetrahydro-2H-pyran-4-ylmethyl)amino]phenyl}sulfonyl)benzamide] | 2.32
5 | CC1(C)CCC(CN2CCN(c3ccc(C(=O)NS(=O)(=O)c4ccc(NCCCN5CCOCC5)c([N+](=O)[O-])c4)c(Oc4ccccc4Cl)c3)CC2)=C(c2ccc(Cl)cc2)C1 [Example 116, 2-(2-chlorophenoxy)-4-(4-{[2-(4-chlorophenyl)-4,4-dimethylcyclohex-1-en-1-yl]methyl}piperazin-1-yl)-N-({4-[(3-morpholin-4-ylpropyl)amino]-3-nitrophenyl}sulfonyl)benzamide] | 0.123
6 | CC1(C)CCC(CN2CCN(c3ccc(C(=O)NS(=O)(=O)c4ccc(NCC5(N)CCOCC5)c([N+](=O)[O-])c4)c(Oc4cc5cc[nH]c5cc4F)c3)CC2)=C(c2ccc(Cl)cc2)C1 [Example 248, N-[(4-{[(4-aminotetrahydro-2H-pyran-4-yl)methyl]amino}-3-nitrophenyl)sulfonyl]-4-(4-{[2-(4-chlorophenyl)-4,4-dimethylcyclohex-1-en-1-yl]methyl}piperazin-1-yl)-2-[(6-fluoro-1H-indol-5-yl)oxy]benzamide] | 0.051
7 | CC1(C)CCC(CN2CCN(c3ccc(C(=O)NS(=O)(=O)c4ccc(NC5CCN(C6CCCC6)CC5)c([N+](=O)[O-])c4)c(Oc4ccccc4Cl)c3)CC2)=C(c2ccc(Cl)cc2)C1 [Example 117, 2-(2-chlorophenoxy)-4-(4-{[2-(4-chlorophenyl)-4,4-dimethylcyclohex-1-en-1-yl]methyl}piperazin-1-yl)-N-({4-[(1-cyclopentylpiperidin-4-yl)amino]-3-nitrophenyl}sulfonyl)benzamide] | 0.072
8 | CN1CCC(Nc2ccc(S(=O)(=O)NC(=O)c3ccc(N4CCN(CC5=C(c6ccc(Cl)cc6)CC(C)(C)CC5)CC4)cc3Oc3cc4cc[nH]c4cc3F)cc2[N+](=O)[O-])CC1 [Example 154, 4-(4-{[2-(4-chlorophenyl)-4,4-dimethylcyclohex-1-en-1-yl]methyl}piperazin-1-yl)-2-[(6-fluoro-1H-indol-5-yl)oxy]-N-({4-[(1-methylpiperidin-4-yl)amino]-3-nitrophenyl}sulfonyl)benzamide] | 0.012
9 | CC1(C)CCC(CN2CCN(c3ccc(C(=O)NS(=O)(=O)c4ccc(NC5CCN(C6CCOCC6)CC5)c([N+](=O)[O-])c4)c(Oc4cccc5c4CC(=O)N5)c3)CC2)=C(c2ccc(Cl)cc2)C1 [Example 289, 4-(4-{[2-(4-chlorophenyl)-4,4-dimethylcyclohex-1-en-1-yl]methyl}piperazin-1-yl)-N-({3-nitro-4-[(1-tetrahydro-2H-pyran-4-ylpiperidin-4-yl)amino]phenyl}sulfonyl)-2-[(2-oxo-2,3-dihydro-1H-indol-4-yl)oxy]benzamide] | < 0.01
10 | CN1CCC(Nc2ccc(S(=O)(=O)NC(=O)c3ccc(N4CCN(Cc5cc6c(cc5-c5ccc(Cl)cc5)OCO6)CC4)cc3Oc3ccccc3Cl)cc2[N+](=O)[O-])CC1 [Example 183, 2-(2-chlorophenoxy)-4-(4-{[6-(4-chlorophenyl)-1,3-benzodioxol-5-yl]methyl}piperazin-1-yl)-N-({4-[(1-methylpiperidin-4-yl)amino]-3-nitrophenyl}sulfonyl)benzamide] | 2.53
11 | Cc1cc2cc(Oc3cc(N4CCN(CC5=C(c6ccc(Cl)cc6)CC(C)(C)CC5)CC4)ccc3C(=O)NS(=O)(=O)c3ccc(NCCCN4CCOCC4)c([N+](=O)[O-])c3)ccc2[nH]1 [Example 4, 4-(4-((2-(4-chlorophenyl)-4,4-dimethylcyclohex-1-en-1-yl)methyl)piperazin-1-yl)-2-((2-methyl-1H-indol-5-yl)oxy)-N-((4-((3-morpholin-4-ylpropyl)amino)-3-nitrophenyl)sulfonyl)benzamide] | 2.47
12 | CNC(=O)c1cccc(Oc2cc(N3CCN(Cc4ccccc4-c4ccc(Cl)cc4)CC3)ccc2C(=O)NS(=O)(=O)c2ccc(NCCCN(C)C)c([N+](=O)[O-])c2)c1 [Example 104, 4-(4-((4′-chlorobiphenyl-2-yl)methyl)piperazin-1-yl)-N-(4-(3-(dimethylamino)propylamino)-3-nitrophenylsulfonyl)-2-(3-(methylcarbamoyl)phenoxy)benzamide] | 2.32
13 | CC1(C)CCC(CN2CCN(c3ccc(C(=O)NS(=O)(=O)c4ccc(NCC5CCOCC5)c([N+](=O)[O-])c4)c(Oc4ccc(NS(C)(=O)=O)nc4)c3)CC2)=C(c2ccc(Cl)cc2)C1 [Example 356, 4-(4-{[2-(4-chlorophenyl)-4,4-dimethylcyclohex-1-en-1-yl]methyl}piperazin-1-yl)-2-({6-[(methylsulfonyl)amino]pyridin-3-yl}oxy)-N-({3-nitro-4-[(tetrahydro-2H-pyran-4-ylmethyl)amino]phenyl}sulfonyl)benzamide] | 2.82
14 | O=C(NS(=O)(=O)c1ccc(NCC2CCOCC2)c([N+](=O)[O-])c1)c1ccc(N2CCN(Cc3ccccc3-c3ccc(Cl)cc3)CC2)cc1Oc1ccc(Cl)cc1 [Example 7, 4-(4-((4′-chloro-1,1′-biphenyl-2-yl)methyl)piperazin-1-yl)-2-(4-chlorophenoxy)-N-((3-nitro-4-((tetrahydro-2H-pyran-4-ylmethyl)amino)phenyl)sulfonyl)benzamide] | 2.59
